Measurements as given in patent US12025596B2, “6-oxo-pipecolic acid quantitation by mass spectrometry” (THE REGENTS OF THE UNIVERSITY OF COLORADO, priority 2018, dated 2024).
Where “and” joins values, the source holds several entries; their conditions need not be identical. Equal entries are not always repeated. Entries after “also recorded” stand apart in the source; their conditions may differ.

Assays:
[1] = Blood spot stability at room temperature; assay type: physicochemical, human; conditions: blood spots (Whatman 903) stored at room temperature
Text: (§1) As a primary aim of this research was to evaluate biomarkers suitable for newborn screening, we analyzed blood spots (Whatman 903 Lot W-041) from two subjects and controls. […] A freeze-thaw study and a 4-month stability study was done in urine samples from subjects 1 and 2 (Table 4).

[2] = Four freeze-thaw cycle stability in urine; assay type: physicochemical, human; conditions: urine from PDE patients
Method: as §1
(§2) To quantify 6-Oxo-PIP and Δ^1-P6C/P6CH, we prepared standard curves ranging from 0.5-500 μM from control urine (FIGS. 5 and 6). In a freeze-thaw study (6-Oxo-PIP, FIG. 6; and P6C/P6CH, FIG. 7) and a 4-month stability study (FIG. 8 and FIG. 9B), fresh urine samples (400 μL) were aliquoted into 1.5 mL Eppendorf tubes and stored either at room temperature (22±2° C.), regular freezer (−13±3° C.) or deep freezer (−77±3° C.) and sampled over a four-month period. First, both biomarkers Δ^1-P6C/P6CH and 6-Oxo-PIP were stable via four freeze-thaw cycles (6-Oxo-PIP FIG. 6; and Δ^1-P6C/P6CH FIG. 7). The initial 6-Oxo-PIP concentrations observed with patient one and patient two were 298±23 and 440±4 μM, respectively. […] The original concentrations of Δ^1-P6C/P6CH for patient one and two were 16.1±1.9 μM and 27.1±2.0 μM, respectively, an order of magnitude less than 6-oxo-PIP. […] Even after 126 days storage, roughly half of the Δ^1-P6C/P6CH from the original sample (day 1) remained.

[3] = 4-month biomarker stability study in urine samples; assay type: physicochemical, human; conditions: PDE urine, −70° C.
[4] = Cytosolic, S9, mitochondrial and plasma metabolism of lysine metabolites; assay type: in vitro ADME, human
Method: Cytosolic and mitochondrial metabolism of lysine metabolites: Human liver cytosol 100 μL (10 mg/mL) or S9 fraction 100 μL (20 mg/mL) and 100 μL NAD+ (1.2 mM final) in 400 μL PBS pH 7.4 were preincubated at 37° C. for 5 min, followed by addition of 100 μL Δ1-P6C (100 μM); 100 μL samples were taken at 0.5, 5, 20 and 50 min, added to 300 μL 1:1 MeOH:ACN and analysed by LC-MS/MS. To probe potential phase II metabolism, 100 μL human liver microsomes (20 mg protein/mL) were similarly incubated with 4.0 mM UDPGA.
Human liver mitochondria were freshly prepared by homogenization of a human liver sample with a Teflon pestle in 5% weight to volume Zheng buffer (Zheng et al. 1990, Biochim Biophys Acta 1019:1-10), and after centrifugation at 5600 g for 5 min, the supernatant was transferred to a centrifuge tube; this procedure was repeated on the resuspended pellet a second time. Both supernatants were combined, centrifuged at 37,500 g for 5 min, the resulting pellet resuspended in Zheng buffer, homogenized and similarly pelleted again, and resuspended in 300 μL Zheng buffer to provide a mitochondrial preparation, with protein concentration determined using the Bio-Rad Protein Assay. To access the mitochondrial matrix, the homogenate was subjected to 3 freeze-thaw cycles, followed by 2×7 bursts of sonication on ice using a Branson 450 digital sonifier with a 2-inch cup horn at 30% amplitude. Of this mitochondrial preparation 100 μL was similarly incubated with Δ1-P6C and analyzed as above.
Albeit small, the formation of 6-oxo-PIP raises the possibility of a second pathway. […] Thus, this alternative mechanism to AAA is not a major pathway.

[5] = 4-month biomarker stability study in urine samples; assay type: physicochemical, human; conditions: for concentration: PDE urine; for decrease at 126 days: room temperature
Text: Liquid chromatography tandem mass spectrometry experiments: Lysine metabolites were first analyzed based on previously published liquid chromatography tandem mass spectrometry (LC-MS/MS) methods (Struys, Jakobs 2007, Molecular Genetics and Metabolism 91:405; Yuzyuk et al. 2016, J Chromatogr B Analyt Technol Biomed Life Sci, 1017-1018:145-52). As the goal of this study was to replicate current newborn screening modalities, we focused on a non-derivatized MS/MS analytical method (Nagy et al. 2003, Rapid Commun Mass Spectrom 17:983-90). Samples were analyzed via electrospray ionization in positive ion mode (ESI+) using an Applied Biosystems Sciex 4000 (Applied Biosystems) equipped with a Shimadzu HPLC (Shimadzu Scientific Instruments) and a Leap auto-sampler (LEAP Technologies). Methanol (MeOH):acetonitrile (ACN) 200 μL 1:1 mixture was added to 100 μL of plasma, blood, urine, CSF or standard materials. Plasma and blood samples were centrifuged at 10,000 rpm and the supernatants used. Urine and CSF samples required no additional processing. […] Samples were analyzed using the following conditions: i) ion-spray voltage of 5500 V; ii) temperature, 450° C.; iii) collision using nitrogen gas with curtain gas (CUR) set at 10 and collisionally activated dissociation (CAD) set at 12; iv) ion source gas one (GS1) and two (GS2) were set at 30; v) entrance potential was set at 10 V; vi) quadruple one (Q1) and (Q3) were set on unit resolution; vii) dwell time was set at 200 msec.
Biomarker stability studies: In a 4-month stability study, fresh urine samples (400 μL) from two subjects were aliquoted into 1.5 mL Eppendorf tubes and stored either at room temperature (22±2° C.), freezer (−13±3° C.) or deep freezer (−77±3° C.) and sampled over four-months.
as §1, §2

signal in blood spots [1]: noted in the initial blood spot | stability via four freeze-thaw cycles [2]: stable | concentration ([3]; Subject 2, day 0): 387.6 µM | concentration ([3]; Subject 2, day 60): 340.7 µM | concentration ([5]; Room Temperature, Subject 1, day 0): 298 ± 23 µM and 297.0 µM | concentration ([5]; Room Temperature, Subject 1, day 0, listed as 6-Oxo-PIP): 298 ± 23 µM | concentration ([5]; Room Temperature, Subject 1, day 1): 294.8 µM | concentration ([5]; Room Temperature, Subject 1, day 2): 283.5 µM | concentration ([5]; Room Temperature, Subject 1, day 3): 30.1 µM | concentration ([5]; Room Temperature, Subject 1, day 5): 257.6 µM | concentration ([5]; Room Temperature, Subject 1, day 7): 252.1 µM | concentration ([5]; Room Temperature, Subject 1, day 10): 234.7 µM | concentration ([5]; Room Temperature, Subject 1, day 14): 233.0 µM | concentration ([5]; Room Temperature, Subject 1, day 21): 197.5 µM | concentration ([5]; Room Temperature, Subject 1, day 60): 182.0 µM | concentration ([5]; Room Temperature, Subject 1, day 126): 170.0 µM | concentration ([5]; Room Temperature, Subject 2, day 0): 440 ± 4 µM and 440.1 µM | concentration ([5]; Room Temperature, Subject 2, day 0, listed as 6-Oxo-PIP): 440 ± 4 µM | concentration ([5]; Room Temperature, Subject 2, day 1): 390.8 µM | concentration ([5]; Room Temperature, Subject 2, day 2): 418.2 µM | concentration ([5]; Room Temperature, Subject 2, day 3): 387.7 µM | concentration ([5]; Room Temperature, Subject 2, day 5): 383.9 µM | concentration ([5]; Room Temperature, Subject 2, day 7): 346.0 µM | concentration ([5]; Room Temperature, Subject 2, day 10): 345.2 µM | concentration ([5]; Room Temperature, Subject 2, day 14): 330.2 µM | concentration ([5]; Room Temperature, Subject 2, day 21): 322.6 µM | concentration ([5]; Room Temperature, Subject 2, day 60): 312.3 µM | concentration ([5]; Room Temperature, Subject 2, day 126): 295.3 µM | concentration ([5]; −15° C., Subject 1, day 0): 284.8 µM | concentration ([5]; −15° C., Subject 1, day 3): 243.1 µM | concentration ([5]; −15° C., Subject 1, day 7): 260.8 µM | concentration ([5]; −15° C., Subject 1, day 10): 285.1 µM | concentration ([5]; −15° C., Subject 1, day 14): 219.7 µM | concentration ([5]; −15° C., Subject 1, day 21): 227.7 µM | concentration ([5]; −15° C., Subject 1, day 60): 218.4 µM | concentration ([5]; −15° C., Subject 1, day 126): 211.5 µM | concentration ([5]; −15° C., Subject 2, day 0): 387.6 µM | concentration ([5]; −15° C., Subject 2, day 3): 359.0 µM | concentration ([5]; −15° C., Subject 2, day 7): 345.0 µM | concentration ([5]; −15° C., Subject 2, day 10): 336.5 µM | concentration ([5]; −15° C., Subject 2, day 14): 385.3 µM | concentration ([5]; −15° C., Subject 2, day 21): 345.2 µM | concentration ([5]; −15° C., Subject 2, day 60): 322.3 µM | concentration ([5]; −15° C., Subject 2, day 126): 314.3 µM | concentration ([5]; −70° C., Subject 1, day 0): 284.8 µM | concentration ([5]; −70° C., Subject 1, day 3): 298.2 µM | concentration ([5]; −70° C., Subject 1, day 7): 271.9 µM | concentration ([5]; −70° C., Subject 1, day 10): 221.7 µM | concentration ([5]; −70° C., Subject 1, day 14): 218.9 µM | concentration ([5]; −70° C., Subject 1, day 21): 217.4 µM | concentration ([5]; −70° C., Subject 1, day 60): 211.3 µM | concentration ([5]; −70° C., Subject 1, day 126): 198.4 µM | concentration ([5]; −70° C., Subject 2, day 3): 356.4 µM | concentration ([5]; −70° C., Subject 2, day 7): 329.2 µM | concentration ([5]; −70° C., Subject 2, day 10): 380.3 µM | concentration ([5]; −70° C., Subject 2, day 14): 418.3 µM | concentration ([5]; −70° C., Subject 2, day 21): 320.1 µM | concentration ([5]; −70° C., Subject 2, day 126): 322.7 µM | initial decrease within the first two weeks ([5]; urine, regardless of storage temperature): 20-21% | decrease at 126 days ([5]; urine, subject 1): 43% | decrease at 126 days ([5]; urine, subject 2): 33%
Structure (SMILES): O=C1CCC[C@@H](C(=O)O)N1 [6-oxo-PIP, (S)-6-oxopiperidine-2-carboxylic acid]
conversion to AAA (hydrolytic ring opening) ([4]; incubation with human S9): none of these experiments showed a conversion | conversion to AAA (hydrolytic ring opening) ([4]; incubation with human cytosol): none of these experiments showed a conversion | conversion to AAA (hydrolytic ring opening) ([4]; incubation with human plasma (e.g. esterase activity)): none of these experiments showed a conversion | stability at room temperature ([5]; urine samples stored at room temperature (22±2° C.)): considerably more stable than Δ^1-P6C/P6CH; also recorded: measurable for up to four months
